Measurements published in patent US12421556B2, “Materials and methods for stratifying and treating cancers” (The Institute of Cancer Research:Royal Cancer Hospital, priority 2017, dated 2025).

Columns and labels:
[1] = system: advanced STS; conditions: 1st line, in combination with doxorubicin; cited from earlier work
[2] = system: advanced soft tissue sarcoma; assay: RMH-SARC retrospective cohort: advanced STS patients treated with pazopanib, PFS, OS and RECIST 1.1 response; format: in vivo, human
From the text: Collection and analysis of anonymised archival FFPE tissue and associated clinical data was approved in as a sub-study protocol amendment to the Royal Marsden-sponsored Elucidation of a Molecular signature of Pazopanib Response in Advanced soft tissue Sarcoma including solitary fibrous tumours (EMPRASS) study. (RMH Committee for Clinical Research reference 4107, NHS Research Ethic Committee reference 14/WA/0164). This cohort is referred to as RMH-SARC in this manuscript.
Patients were retrospectively identified for inclusion by search of institutional database and electronic patient records compiled during routine clinical practice. Eligibility criteria for inclusion were: i) histopathological diagnosis of soft tissue tumour as confirmed by contemporaneous report by specialist sarcoma histopathologist; ii) received at least one dose of pazopanib for treatment of unresectable or advanced STS; iii) available FFPE tumour specimen, obtained from patient prior to first dose of pazopanib. Treatment and response monitoring was as per standard institutional practice, with pazopanib at 800 mg once daily until disease progression, intolerable toxicity or significant clinical deterioration. Dose interruption and/or reduction were instigated based on standard institutional guidelines and the discretion of the treating physician. Baseline clinico-pathological characteristics and survival data were collected on retrospective review of contemporaneous electronic medical records. All related radiological imaging was retrospectively reviewed and disease response assessed according to RECIST 1.1. This manuscript is written according to the Reporting Recommendations for Tumor Marker Prognostic Studies (REMARK) guidelines15.
The stepwise primary objectives were to assess whether a surrogate of two immunohistochemical markers (FGFR1 and PDGFRA) and TP53 mutation status had statistical significant prognostic information for advanced STS. In this event, the two biomarkers panel were tested to determine if there is added statistically significant prognostic information to standard clinicopathological variables in multivariable comparisons. The secondary analyses included identification of biological subgroups based on gene expression profiles, and evaluation of the significance of these biological subgroups association with patient outcome. Progression free survival (PFS—defined as time in months from first dose of pazopanib to radiological disease progression or death from any cause) was the primary outcome endpoint, with overall survival (OS—defined as a time in months from first dose of pazopanib to death from any cause) as the secondary outcome endpoint. Data cut-off for survival follow-up was 30 Nov. 2016. Statistical analyses were performed by two senior statisticians. The Kaplan-Meier method was used to estimate PFS and OS, and the log-rank test to compare survival in different strata. Multivariable cox regression model was used to estimate the significance adjusted for the standard clinicopathological variables (including age, tumour grade, performance status and histological subtype). Proportional hazard assumption was tested using Schoenfeld residuals, and where deemed appropriate, Restricted Mean Survival was used. Interaction tests between FGFR1 and PDGFRA expression to predict for survival were evaluated for PFS and OS respectively. Likelihood ratio tests based on proportional hazards regression were used to test the prognostic information of all biomarkers. The quantification of the amount of prognostic information provided by one biomarker was assessed by the likelihood ratio χ^2 value (LRχ^2), and the additional information of one biomarker to biomarker score was measured by the increase of the likelihood ratio χ^2 value (ΔLRχ^2) obtained from the proportional hazards model.
Patients were identified by retrospective search of prospectively compiled institutional database and electronic patient records. […]

[3] = system: STS subtypes; conditions: randomised phase II trial; cited from earlier work
[4] = F-Lo/P-Hi (FGFR1-Lo/PDGFRA-Hi) subgroup
[5] = gene expression subgroup A (IHCneg, TP53 wt)

olaratumab
OS benefit [1]: marked OS benefit

Cc1ccc(Nc2nccc(N(C)c3ccc4c(C)n(C)nc4c3)n2)cc1S(N)(=O)=O [pazopanib, Pazopanib]
patients who had died (overall survival event) ([2]; 31 of 38 patients, median follow-up 26.2 months): 82%
patients with a progression-free survival event ([2]; 35 of 38 patients, median follow-up 26.2 months): 92%
median OS [2, 4]: 1.7 months
median PFS [2, 4]: 1.4 months
PFS HR, multivariable analysis ([2]; F-Lo/P-Hi v. IHCneg, adjusted for clinico-pathological factors, 95% CI 3.86-40.72): 12.54
OS HR, multivariable analysis ([2]; F-Lo/P-Hi v. IHCneg, adjusted, 95% CI 5.90-82.81): 22.11
OS HR, univariate analysis ([2]; FGFR1-Lo/PDGFRA-Hi v. IHCneg, 95% CI 2.51-17.91): 6.70
PFS HR, univariate analysis ([2]; FGFR1-Lo/PDGFRA-Hi v. IHCneg, 95% CI 3.58-25.94): 9.64
progression as best response ([2]; RECIST 1.1, 17/38): 44.7%
objective radiological response ([2]; RECIST 1.1, best response, 1/38): 2.6%
stable disease ([2]; RECIST 1.1, best response, 20/38): 52.6%
PFS HR, univariate analysis ([2]; TP53 mutated v. wildtype, all 38 patients, 95% CI 0.83-3.76, P 0.14): 1.77
OS HR, univariate analysis ([2]; TP53 mutated v. wildtype, all 38 patients, 95% CI 1.15-5.51, P 0.02): 2.51
PFS HR ([2]; TP53 mutation v. wildtype in 31 IHCneg cases, 95% CI 1.03-5.34, p=0.04): 2.34
OS HR ([2]; TP53 mutation v. wildtype in 31 IHCneg cases, 95% CI 1.44-8.39, p=0.003): 3.47
PFS HR, multivariable analysis ([2]; TP53 mutation v. wildtype, adjusted, 95% CI 1.45-10.86, p=0.007): 3.97
OS HR, multivariable analysis ([2]; TP53 mutation v. wildtype, adjusted, 95% CI 2.56-24.41): 7.90
median OS [2, 5]: 34.4 months
median PFS [2, 5]: 12.8 months
OS HR ([2]; high v. low PDGFRA expression, 95% CI 1.01-4.35, p=0.04): 2.08
median PFS ([2]; patients with partial response or stable disease): 6.4 months
OS HR ([2]; subgroup A v. subgroup B or C, 22 IHCnegTP53 wt patients, 95% CI 0.04-0.96, p=0.03): 0.20
PFS HR ([2]; subgroup A v. subgroup B or C, 22 IHCnegTP53 wt patients, 95% CI 0.09-0.85, p=0.02): 0.27
median OS ([2]; whole cohort, 38 patients): 9.5 months
median PFS ([2]; whole cohort, 38 patients, pazopanib 800 mg once daily): 3.7 months

CNC(=O)c1cc(Oc2ccc(NC(=O)Nc3ccc(Cl)c(C(F)(F)F)c3)c(F)c2)ccn1 [regorafenib, Regorafenib]
efficacy in STS subtypes [3]: efficacy in several STS subtypes but not adipocytic tumours
